In US9770026B2, “Substituted pyrimidine compound and uses thereof” (Shenyang Sinochem Agrochemicals R&D Co., Ltd., priority 2012, dated 2017):

Tests used:
Diamond back moth = assay: insecticidal activity against diamond back moth, airbrush spray; format: in vivo; conditions: for control (test results against diamond back moth): 600 ppm, mortality after 72 hrs
Method in brief: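 Airbrush leaf-disc spray test: both faces of 2 cm cabbage discs received 0.5 ml of test solution at 0.7 kg/cm^2. Solutions were made in acetone:methanol (1:1) and brought to concentration with 0.1% Tween 80 in water. Ten second-instar larvae per disc, triplicates, were held at 25° C and 60˜70% R.H., with mortality recorded at 72 hrs.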

armyworm = assay: bioactivity test against armyworm, airbrush spray; format: in vivo; conditions: 600 ppm, mortality after 72 h
[1] = test system: Green peach aphids (Myzus Persicae Sulzer); assay: bioactivity test against green peach aphid, airbrush foliar spray; format: in vivo; conditions: for control (test results against green peach aphid): death rate after 48 hrs
Method in brief: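 Death rate was scored at 48 hrs, held at 25±1 C and 60±5% RH, following airbrush foliar spray (0.5 mL, 10 psi) onto cabbage leaf discs bearing about 15-30 aphids. Test solutions: compound dissolved in 1:1 acetone:methanol, brought to concentration with 0.1% tween 80 water.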

carmine spider mite = assay: bioactivity test against carmine spider mite, airbrush spray; format: in vivo; conditions: for control against carmine spider mite: mortality after 72 hrs
Method in brief: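 Broadbean seedlings infested with adult mites were sprayed with compound (acetone/methanol stock diluted in 0.1% Tween 80 water) by airbrush at 0.7 kg/cm^2, 0.5 ml. Three replicates were run. Mortality was scored after 72 hrs.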

corn rust = assay: protectant activity in vivo against corn rust
wheat powdery mildew = assay: protectant activity in vivo against wheat powdery mildew; conditions: 400 ppm

| Structure (SMILES) | control (test results against diamond back moth) (Diamond back moth) [%] | Insecticidal activity against peach aphid (%) ([1]; 1.25 mg/L, contrastive test) | control (test results against green peach aphid) ([1]; 5 ppm) [%] | control (test results against green peach aphid) ([1]; 10 ppm) [%] | control (test results against green peach aphid) ([1]; 100 ppm) [%] | control (test results against green peach aphid) ([1]; 600 ppm) [%] | control against carmine spider mite (carmine spider mite; 100 ppm) [%] | control against carmine spider mite (carmine spider mite; 600 ppm) [%] | protectant activity against corn rust in vivo (corn rust; 100 ppm) [%] | protectant activity against corn rust in vivo (corn rust; 400 ppm) [%] | protectant activity against wheat powdery mildew in vivo (wheat powdery mildew) [%] | control (test results against armyworm) (armyworm) [%] | other results |
| --- | --- | --- | --- | --- | --- | --- | --- | --- | --- | --- | --- | --- | --- |
| Cc1ncnc(NCCc2ccc(Oc3ccc(C(F)(F)F)cn3)cc2)c1Cl [Compound I-6731] | 100 | 60 | 100 | 100 | 100 | 100 | 100 | 100 | 100 | 100 | 100 |  | pest or weed control at 600 ppm (armyworm; 72 h): 100%; pest or weed control at 2.5 µg/mL ([1]; Myzus persicae, foliar, 48 h, 2.5 mg/L, contrastive test, read-out: Insecticidal activity against peach aphid (%)): 93%; pest or weed control at 5 µg/mL ([1]; Myzus persicae, foliar, 48 h, 5 mg/L, contrastive test, read-out: Insecticidal activity against peach aphid (%)): 100%; pest or weed control at 10 µg/mL ([1]; Myzus persicae, foliar, 48 h, 10 mg/L, contrastive test, read-out: Insecticidal activity against peach aphid (%)): 100%; pest or weed control at 100 µg/mL ([1]; Myzus persicae, foliar, 48 h, 100 mg/L, contrastive test, read-out: Insecticidal activity against peach aphid (%)): 100%; pest or weed control at 600 µg/mL ([1]; Myzus persicae, foliar, 48 h, 600 mg/L, contrastive test, read-out: Insecticidal activity against peach aphid (%)): 100% |
| Cc1ncnc(NCCc2ccc(Oc3ccc(C(F)(F)F)cn3)cc2)c1Cl [Compound I-6733] | 100 |  |  | 100 | 100 | 100 | 100 | 100 | 100 | 100 | 100 | 100 | Insecticidal activity against diamond back moth (%) (Diamond back moth; 10 mg/L): 40%; Insecticidal activity against diamond back moth (%) (Diamond back moth; 100 mg/L): 68%; Insecticidal activity against diamond back moth (%) (Diamond back moth; 600 mg/L): 100% |
| Cc1ncnc(NCCc2ccc(Oc3ccc(C(F)(F)F)cn3)cc2)c1Cl [Compound I-6734] | 100 |  |  | 100 | 100 | 100 | 100 | 100 | 100 | 100 | 100 | 100 | pest or weed control at 10 µg/mL (Diamond back moth; 72 h, 10 mg/L): 40%; pest or weed control at 100 µg/mL (Diamond back moth; 72 h, 100 mg/L): 52%; pest or weed control at 600 µg/mL (Diamond back moth; 72 h, 600 mg/L): 100%; Insecticidal activity against carmine spider mite (% ) (carmine spider mite; 2.5 mg/L): 51%; Insecticidal activity against carmine spider mite (% ) (carmine spider mite; 5 mg/L): 57%; Insecticidal activity against carmine spider mite (% ) (carmine spider mite; 10 mg/L, contrastive test): 82%; Insecticidal activity against carmine spider mite (% ) (carmine spider mite; 100 mg/L, contrastive test): 100%; Insecticidal activity against carmine spider mite (% ) (carmine spider mite; 600 mg/L, contrastive test): 100% |
| Cc1ncnc(NCCc2ccc(Oc3ccc(C(F)(F)F)cn3)cc2)c1Cl [Compound I-6735] | 100 | 67 | 100 | 100 | 100 | 100 | 100 | 100 | 100 | 100 | 100 | 100 | Insecticidal activity against peach aphid (%) ([1]; 2.5 mg/L, contrastive test): 80%; Insecticidal activity against peach aphid (%) ([1]; 5 mg/L, contrastive test): 100%; Insecticidal activity against peach aphid (%) ([1]; 10 mg/L, contrastive test): 100%; Insecticidal activity against peach aphid (%) ([1]; 100 mg/L, contrastive test): 100%; Insecticidal activity against peach aphid (%) ([1]; 600 mg/L, contrastive test): 100% |
